Assay results taken from patent US20230089530A1, “QUINUCLIDINONE ANALOGUES AS ANTICANCER AGENTS” (Newave Pharmaceutical Inc., priority 2020, published 2023).

Key:
[1] = system: RS4;11(G101V) cancer cells; assay: In vitro anti-proliferation assay in RS4;11 cell line with G101V mutation (ATPlite luminescence); type: cell-based; details: about 72 hours incubation, medium supplemented with 5% FBS or 10% normal human serum
Protocol: Biological Example 1: In Vitro Anti-Proliferation Assay in BCL-2-Dependent Acute Lymphoblastic Leukemia (ALL) Cell Line RS4;11 with G101V Mutation
(§1) The RS4;11 cell line used herein was engineered to stably overexpress the G101V mutant form of human Bcl-2. The cell antiproliferation was assayed by PerkinElmer ATPlite™ Luminescence Assay System. Briefly, the RS4;11(G101V) cancer cells were plated at a density of about 1×10^4 cells per well in Costar 96-well plates, and were incubated with different concentrations of compounds for about 72 hours in medium supplemented with 5% FBS or 10% normal human serum (NHS). One lyophilized substrate solution vial was then reconstituted by adding 5 mL of substrate buffer solution, and was agitated gently until the solution was homogeneous. About 50 μL of mammalian cell lysis solution was added to 100 μL of cell suspension per well of a microplate, and the plate was shaken for about five minutes in an orbital shaker at ˜700 rpm. This procedure was used to lyse the cells and to stabilize the ATP. Next, 50 μL substrate solution was added to the wells and microplate was shaken for five minutes in an orbital shaker at ˜700 rpm. Finally, the luminescence was measured by a PerkinElmer TopCount® Microplate Scintillation Counter. Such assays, carried out with a range of doses of test compounds, allowed the determination of the cellular anti-antiproliferative IC50 of the compounds of the present invention. The following table lists the IC50 values of certain compounds of the invention.

[2] = system: RS4;11-G101V cell line; assay: Another in vitro anti-proliferation assay in RS4;11-G101V cell line; type: cell-based, human
Protocol: as §1
The following table lists the IC50 values of another in vitro anti-proliferation assay in RS4;11-G101V cell line.

[3] = Mice PK study; type: in vivo; details: CD-1 mouse
Protocol: The pharmacokinetics of compounds were evaluated in CD-1 mouse via Intravenous and Oral Administration. The IV dose was administered as a slow bolus in the Jugular vein, and oral doses were administered by gavage. The formulation for IV dosing was 5% DMSO in 20% HPBCD in water, and the PO formulation was 2.5% DMSO, 10% EtOH, 20% Cremphor EL, 67.5% D5W. The PK time point for the IV arm was 5, 15, 30 min, 1, 2, 4, 6, 8, 12, 24 hours post dose, and for PO arm was 15, 30 min, 1, 2, 4, 6, 8, 12, 24 hours post dose. Approximately 0.03 mL blood was collected at each time point. Blood of each sample was transferred into plastic micro centrifuge tubes containing EDTA-K2 and collect plasma within 15 min by centrifugation at 4000 g for 5 minutes in a 4° C. centrifuge. Plasma samples were stored in polypropylene tubes. The samples were stored in a freezer at −75±15° C. prior to analysis. Concentrations of compounds in the plasma samples were analyzed using a LC-MS/MS method. WinNonlin (Phoenix™, version 6.1) or other similar software was used for pharmacokinetic calculations. The following pharmacokinetic parameters were calculated, whenever possible from the plasma concentration versus time data: IV administration: C0, CL, Vd, T1/2, AUCinf, AUClast, MRT, Number of Points for Regression; PO administration: Cmax, Tmax, T1/2, AUCinf, AUClast, F %, Number of Points for Regression. The pharmacokinetic data was described using descriptive statistics such as mean, standard deviation.

| SMILES | IC50 ([1]; Homo sapiens, RS4-11, 72 h) | IC50 [1] | also measured |
| --- | --- | --- | --- |
| COCC1(CO)C(=O)C2(C(C)C)CCN1CC2 (stereo not shown) [Example 5, 2-(hydroxymethyl)-4-isopropyl-2-(methoxymethyl)-1-azabicyclo[2.2.2]octan-3-one] | < 5 µM | – | – |
| CC(C)OCC1(CO)C(=O)C2(C)CCN1CC2 (single isomer, unassigned) [Example 8(isomer 1), 2-(hydroxymethyl)-2-(isopropoxymethyl)-4-methyl-1-azabicyclo[2.2.2]octan-3-one] | < 5 µM | – | – |
| COCC1(CO)C(=O)C2(C)CCN1CC2 (stereo not shown) [Example 2, 2-(hydroxymethyl)-2-(methoxymethyl)-4-methyl-1-azabicyclo[2.2.2]octan-3-one] | < 5 µM | – | – |
| CC(C)OCC1(CO)C(=O)C2(C)CCN1CC2 (single isomer, unassigned) [Example 8(isomer 2), 2-(hydroxymethyl)-2-(isopropoxymethyl)-4-methyl-1-azabicyclo[2.2.2]octan-3-one] | – | < 5 µM | – |
| COC[C@@]1(CO)C(=O)C2(C)CCN1CC2 (single isomer, unassigned) [Example 3 (isomer 1)] | < 5 µM | – | – |
| COCC1(CO)C(=O)C2(C(F)(F)F)CCN1CC2 (stereo not shown) [Example 10, 2-(hydroxymethyl)-2-(methoxymethyl)-4-(trifluoromethyl)-1-azabicyclo[2.2.2]octan-3-one] | > 5 µM | – | – |
| CCOC[C@@]1(CO)C(=O)C2(C)CCN1CC2 (single isomer, unassigned) [Example 7(isomer 1)] | < 5 µM | – | – |
| CC12CCN(CC1)C(CO)(CO)C2=O [Example 4, 2,2-bis(hydroxymethyl)-4-methyl-1-azabicyclo[2.2.2]octan-3-one] | > 5 µM | – | – |
| CCOC[C@]1(CO)C(=O)C2(C)CCN1CC2 (single isomer, unassigned) [Example 7(isomer 2)] | < 5 µM | – | – |
| COCC1(CO)C(=O)C2(F)CCN1CC2 (stereo not shown) [Example 9, 4-fluoro-2-(hydroxymethyl)-2-(methoxymethyl)-1-azabicyclo[2.2.2]octan-3-one] | > 5 µM | – | – |
| CCC12CCN(CC1)[C@@](CO)(COC)C2=O (single isomer, unassigned) [Example 6(isomer 1)] | < 5 µM | – | – |
| COC[C@]1(CO)C(=O)[C@H]2CC[N@]1[C@H](C)C2 [Example 15, (1R,2R,4S,6R)-2-(hydroxymethyl)-2-(methoxymethyl)-6-methylquinuclidin-3-one] | – | < 5 µM | IC50 [2]: 0.73 µM; potency compared with reference compound APR-246 [2]: more potent than the reference compound APR-246; bioavailability (in words) [3]: excellent bioavailability; Bioavailabilty ([3]; Oral, 100 mpk): 79%; AUClas ([3]; Oral, 100 mpk, plasma): 26,093 h*ng/mL |
| COCC1(CO)C(=O)C2CCN1CC2 (stereo not shown) [APR-246, reference compound] | – | < 5 µM | IC50 [2]: 1.76 µM |
| COC[C@@]1(CO)C(=O)[C@@H]2CC[N@@]1[C@@H](C)C2 [Example 16, (1S,2S,4R,6S)-2-(hydroxymethyl)-2-(methoxymethyl)-6-methylquinuclidin-3-one] | – | < 5 µM | – |
| COC[C@@]1(CO)C(=O)C2(C)CCN1CC2 (single isomer, unassigned) [Example 3 (isomer 2)] | – | > 5 µM | – |
| CCC12CCN(CC1)[C@](CO)(COC)C2=O (single isomer, unassigned) [Example 6(isomer 2)] | < 5 µM | – | – |
